Laboratory results: patent publication US6525001B1, “Substituted pyrimidine and pyridine herbicides” (Mid-American Commercialization Corporation, priority 1997, dated 2003)

Assays:
Format in all cases: in vivo
[1] = system: blackgrass (Alopecurus myosuroides); test: Test B pre-/postemergence; set-up: key: 0 is no effect; 10 is complete control
Outline: (§1)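 Seeds were planted and sprayed preemergence, while plants at 2 to 18 cm (1- to 4-leaf stage) were sprayed postemergence at the same time, with test chemical in a non-phytotoxic solvent mixture containing surfactant. After twelve to sixteen days in a greenhouse, injury was rated visually against untreated controls on a 0–10 scale.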

[2] = system: crabgrass (Digitaria sanguinalis); test: Test B pre-/postemergence; set-up: key: 0 is no effect; 10 is complete control
Outline: as §1

[3] = system: purple nutsedge (Cyperus rotundus); test: Test B pre-/postemergence; set-up: key: 0 is no effect; 10 is complete control
Outline: as §1

[4] = system: soybean (Glycine max); test: Test B pre-/postemergence; set-up: key: 0 is no effect; 10 is complete control
Outline: as §1

[5] = system: wild oat (Avena fatua); test: Test B pre-/postemergence; set-up: key: 0 is no effect; 10 is complete control
Outline: as §1

[6] = system: lambsquarters (Chenopodium album); test: Test C; set-up: key: 0 was no effect; 100 was complete control
[7] = system: purple nutsedge (Cyperus rotundus); test: Test C; set-up: key: 0 was no effect; 100 was complete control
[8] = system: common groundsel (Senecio vulgaris); test: Test E pre-/postemergence/post directed; set-up: key: 0 is no effect; 100 is complete control; settings: PREEMERGENCE
Outline: (§2)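 Greenhouse pots; compound in non-phytotoxic solvent with surfactant, sprayed preemergence within one day of planting, postemergence at two to four leaf stage (three to twenty cm), or post directed to plant base and soil. Visual injury rated 13 to 21 days after application, 0 (none) to 100 (complete control).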

[9] = system: dallisgrass (Paspalum dilatatum); test: Test E pre-/postemergence/post directed; set-up: key: 0 is no effect; 100 is complete control
Outline: as §2

[10] = system: guineagrass (Panicum maximum); test: Test E pre-/postemergence/post directed; set-up: key: 0 is no effect; 100 is complete control
Outline: as §2

[11] = system: sourgrass (Trichachne insularis); test: Test E pre-/postemergence/post directed; set-up: key: 0 is no effect; 100 is complete control
Outline: as §2

[12] = system: tall mallow (Malva sylvestris); test: Test E pre-/postemergence/post directed; set-up: key: 0 is no effect; 100 is complete control; settings: PREEMERGENCE
Outline: as §2

Cc1cnc(-c2ccc(C(F)(F)F)cc2)nc1Cn1ccc(C(F)(F)F)n1 [compound 9]
Plant response rating, Blackgrass ([1]; Rate 62 g/ha, Postemergence): 3
Blackgrass plant response rating ([1]; Rate 62 g/ha, Preemergence): 4
Plant response rating, Blackgrass ([1]; Rate 125 g/ha, Postemergence): 8
Blackgrass plant response rating ([1]; Rate 125 g/ha, Preemergence): 9
Plant response rating, Blackgrass ([1]; Rate 250 g/ha, Postemergence): 8
Plant response rating, Blackgrass ([1]; Rate 250 g/ha, Preemergence): 10
Plant response rating, Blackgrass ([1]; Rate 500 g/ha, Postemergence): 9
Plant response rating, Blackgrass ([1]; Rate 500 g/ha, Preemergence): 10
Plant response rating, Crabgrass ([2]; Rate 62 g/ha, Postemergence): 9
Crabgrass plant response rating ([2]; Rate 62 g/ha, Preemergence): 9
Plant response rating, Crabgrass ([2]; Rate 125 g/ha, Postemergence): 9
Crabgrass plant response rating ([2]; Rate 125 g/ha, Preemergence): 10
Plant response rating, Crabgrass ([2]; Rate 250 g/ha, Postemergence): 10
Plant response rating, Crabgrass ([2]; Rate 250 g/ha, Preemergence): 10
Plant response rating, Crabgrass ([2]; Rate 500 g/ha, Postemergence): 10
Plant response rating, Crabgrass ([2]; Rate 500 g/ha, Preemergence): 10
Plant response rating, Nutsedge ([3]; Rate 62 g/ha, Postemergence): 0
Nutsedge plant response rating ([3]; Rate 62 g/ha, Preemergence): 0
Plant response rating, Nutsedge ([3]; Rate 125 g/ha, Postemergence): 1
Nutsedge plant response rating ([3]; Rate 125 g/ha, Preemergence): 0
Plant response rating, Nutsedge ([3]; Rate 250 g/ha, Postemergence): 3
Plant response rating, Nutsedge ([3]; Rate 250 g/ha, Preemergence): 0
Plant response rating, Nutsedge ([3]; Rate 500 g/ha, Postemergence): 3
Plant response rating, Nutsedge ([3]; Rate 500 g/ha, Preemergence): 0
Plant response rating, Soybean ([4]; Rate 62 g/ha, Postemergence): 8
Soybean plant response rating ([4]; Rate 62 g/ha, Preemergence): 1
Plant response rating, Soybean ([4]; Rate 125 g/ha, Postemergence): 9
Soybean plant response rating ([4]; Rate 125 g/ha, Preemergence): 1
Plant response rating, Soybean ([4]; Rate 250 g/ha, Postemergence): 10
Plant response rating, Soybean ([4]; Rate 250 g/ha, Preemergence): 2
Plant response rating, Soybean ([4]; Rate 500 g/ha, Postemergence): 9
Plant response rating, Soybean ([4]; Rate 500 g/ha, Preemergence): 4
Plant response rating, Wild oats ([5]; Rate 62 g/ha, Postemergence): 3
Wild oats plant response rating ([5]; Rate 62 g/ha, Preemergence): 5
Plant response rating, Wild oats ([5]; Rate 125 g/ha, Postemergence): 4
Wild oats plant response rating ([5]; Rate 125 g/ha, Preemergence): 8
Plant response rating, Wild oats ([5]; Rate 250 g/ha, Postemergence): 6
Plant response rating, Wild oats ([5]; Rate 250 g/ha, Preemergence): 9
Plant response rating, Wild oats ([5]; Rate 500 g/ha, Postemergence): 8
Plant response rating, Wild oats ([5]; Rate 500 g/ha, Preemergence): 9
Plant response rating, Lambsquarters ([6]; POSTEMERGENCE, Rate 35 g/ha): 75
Plant response rating, Lambsquarters ([6]; POSTEMERGENCE, Rate 70 g/ha): 80
Plant response rating, Lambsquarters ([6]; POSTEMERGENCE, Rate 140 g/ha): 100
Plant response rating, Lambsquarters ([6]; PREEMERGENCE, Rate 35 g/ha): 95
Plant response rating, Lambsquarters ([6]; PREEMERGENCE, Rate 70 g/ha): 100
Plant response rating, Lambsquarters ([6]; PREEMERGENCE, Rate 140 g/ha): 100
Plant response rating, Purple nutsedge ([7]; POSTEMERGENCE, Rate 35 g/ha): 5
Plant response rating, Purple nutsedge ([7]; POSTEMERGENCE, Rate 70 g/ha): 5
Plant response rating, Purple nutsedge ([7]; POSTEMERGENCE, Rate 140 g/ha): 5
Plant response rating, Purple nutsedge ([7]; PREEMERGENCE, Rate 35 g/ha): 0
Plant response rating, Purple nutsedge ([7]; PREEMERGENCE, Rate 70 g/ha): 0
Plant response rating, Purple nutsedge ([7]; PREEMERGENCE, Rate 140 g/ha): 0
Plant response rating, Com. groundsel ([8]; Rate 64 g/ha): 100
Plant response rating, Com. groundsel ([8]; Rate 125 g/ha): 100
Plant response rating, Com. groundsel ([8]; Rate 250 g/ha): 100
Plant response rating, Dallisgrass ([9]; POSTEMERGENCE, Rate 125 g/ha): 10
Plant response rating, Dallisgrass ([9]; POSTEMERGENCE, Rate 250 g/ha): 20
Plant response rating, Dallisgrass ([9]; PREEMERGENCE, Rate 32 g/ha): 85
Plant response rating, Dallisgrass ([9]; PREEMERGENCE, Rate 64 g/ha): 100
Plant response rating, Dallisgrass ([9]; PREEMERGENCE, Rate 125 g/ha): 100
Plant response rating, Dallisgrass ([9]; PREEMERGENCE, Rate 250 g/ha): 100
Plant response rating, Guineagrass ([10]; POSTEMERGENCE, Rate 125 g/ha): 35
Plant response rating, Guineagrass ([10]; POSTEMERGENCE, Rate 250 g/ha): 35
Plant response rating, Guineagrass ([10]; PREEMERGENCE, Rate 32 g/ha): 20
Plant response rating, Guineagrass ([10]; PREEMERGENCE, Rate 64 g/ha): 85
Plant response rating, Guineagrass ([10]; PREEMERGENCE, Rate 125 g/ha): 90
Plant response rating, Guineagrass ([10]; PREEMERGENCE, Rate 250 g/ha): 100
Plant response rating, Sourgrass ([11]; POSTEMERGENCE, Rate 125 g/ha): 10
Plant response rating, Sourgrass ([11]; POSTEMERGENCE, Rate 250 g/ha): 30
Plant response rating, Sourgrass ([11]; PREEMERGENCE, Rate 32 g/ha): 85
Plant response rating, Sourgrass ([11]; PREEMERGENCE, Rate 64 g/ha): 100
Plant response rating, Sourgrass ([11]; PREEMERGENCE, Rate 125 g/ha): 100
Plant response rating, Sourgrass ([11]; PREEMERGENCE, Rate 250 g/ha): 100
Plant response rating, Tall Mallow ([12]; Rate 32 g/ha): 100
Plant response rating, Tall Mallow ([12]; Rate 64 g/ha): 100
Plant response rating, Tall Mallow ([12]; Rate 125 g/ha): 100
Plant response rating, Tall Mallow ([12]; Rate 250 g/ha): 100
